Assay results published in patent publication US12515027B2, “Subcutaneous biodegradable reservoir device” (Research Triangle Institute, priority 2018, dated 2026).
Counter-ions that a name gives are not always drawn.

Legend:
Assay type in all cases: physicochemical
[1] = Naltrexone excipient screen, rapid solubility assay
Method: Heat extruded polycaprolactone (PCL) tubes were fabricated (2.5 mm×40 mm) using 80 kDa PCL to produce devices with 70 μm and 100 μm wall thicknesses. […] In vitro release studies involved incubation of devices in 40 mL of phosphate buffered saline (PBS), pH 7.4 in a shaking incubator at 37° C. Implants were transferred to fresh buffer three times per week to maintain sink conditions. The concentration of drugs released in media over time was measured via UV-vis spectroscopy. Solubility, stability, and purity of APIs in excipient were evaluated via HPLC.

[2] = Stability of Naltrexone base in excipients; conditions: stability results
[3] = In vitro release from PCL reservoir implants in PBS pH 7.4 at 37 °C (UV-Vis); conditions: PCL 89 kDa
Method: The implants were incubated in 1×PBS (pH 7.4) at 37° C. Drug quantity released in media was measured via UV-Vis three times per week during which the implants were transferred to fresh buffer to maintain sink conditions. Drug concentrations were determined by correlating UV absorbance values to a standard curve. Standard curves involved measuring peak absorbance values as a function of drug concentrations diluted by half from bulk solutions. Peak absorbance values were determined by scanning the dilute drug solutions from 230 to 700 nm at a step size of 1 nm and assessing the maximum UV absorbance value.
Testing was performed to evaluate release kinetics of varying formulations of active agent and excipient. In particular, the release mechanism and release profiles for TAF formulated with varying mass quantities of castor oil from extruded PCL tubes was evaluated. Heat extruded PCL devices were fabricated (2.5 mm×40 mm) using 80 kDa Sigma grade PCL. […] For the in vitro release studies, devices were incubated in 40 mL of phosphate buffered saline (PBS) at pH 7.4 in a shaking incubator at 37° C. The implants were transferred to fresh buffer three times per week to maintain sink conditions.
Testing was performed to evaluate the in vitro release profile for an exemplary segmented device. In-vitro conditions included a simulated physiological media of a salt solution at pH between 6.5 and 7.5 at a temperature of 37° C. The exemplary device was engineered to release two APIs simultaneously, both at zero-order release kinetics. The device was fabricated with a segmented architecture that contained LNG formulated with ethyl oleate at a 1:4 ratio and EFdA formulated with castor oil at a 1:1 ratio and housed in separate compartments within a single implant design. Different segment lengths, polymer membrane thicknesses and polymer properties were tested.
In vitro release characterization involved incubation of the implants in 40 mL 1× phosphate buffered saline (PBS) (pH 7.4) at 37° C. and placed on an orbital shaker. […] The release buffer was sampled three times per week during which the devices were transferred to 40 mL of fresh buffer to maintain sink conditions. TAF quantity released in each PBS buffer during the time interval was calculated and cumulative mass of drug release as a function of time was determined.

For `O=C1CC[C@@]2(O)[C@H]3Cc4ccc(O)c5c4[C@@]2(CCN3CC2CC2)[C@H]1O5` [Naltrexone Base, Naltrexone], the “Sum of impurities (% total area)” value ([1]; API alone, no excipient (reference line)) was 2.50%, the “Sum of impurities (% total area)” value ([1]; excipient screen, in PEG600) was 2.10% and the “Sum of impurities (% total area)” value ([1]; excipient screen, in castor oil) was 4.50%. The “Sum of impurities (% total area)” value ([1]; excipient screen, in ethyl oleate) was 9.60%, the “Sum of impurities (% total area)” value ([1]; excipient screen, in sesame oil) was 3.20% and the Assay ([1]; in PEG600) was 46.2 mg/mL. It also gave an Assay ([1]; in castor oil) of 9.63 mg/mL, an Assay ([1]; in ethyl oleate) of 2.79 mg/mL and an Assay ([1]; in sesame oil) of 4.62 mg/mL. The “Sum of impurities (% total area)” value ([2]; with PEG600) was 5.10%, the “Sum of impurities (% total area)” value ([2]; with castor oil) was 5.20% and the “Sum of impurities (% total area)” value ([2]; with ethyl oleate) was 9.90%. The “Sum of impurities (% total area)” value ([2]; with sesame oil) was 6.40%.
For `O=C1CC[C@@]2(O)[C@H]3Cc4ccc(O)c5c4[C@@]2(CCN3CC2CC2)[C@H]1O5` [Naltrexone Salt, Naltrexone hydrochloride], the “Sum of impurities (% total area)” value ([1]; API alone, no excipient (reference line), hydrochloride) was 4.10%, the Assay ([1]; in PEG600, hydrochloride) was under 0.1 mg/mL and the Assay ([1]; in castor oil, hydrochloride) was under 0.1 mg/mL. The Assay ([1]; in ethyl oleate, hydrochloride) was “No measurable solubility” and the Assay ([1]; in sesame oil, hydrochloride) was “No measurable solubility”.
With `CC(C)OC(=O)[C@H](C)N[P@](=O)(CO[C@H](C)Cn1cnc2c(N)ncnc21)Oc1ccccc1` [TAF base] the “Daily RR” value ([3]; segmented implant: ENG:sesame oil 2:1 (10 mm, 200 μm) + TAF base:castor oil 2:1 (40 mm, 70 μm)) was 94.8 ± 17.6 µg/day, the “Daily RR” value ([3]; segmented implant: ENG:sesame oil 2:1 (10 mm, 200 μm) + TAF base:sesame oil 2:1 (40 mm, 70 μm)) was 57.9 ± 8.6 µg/day and the “Daily RR” value ([3]; segmented implant: LNG:sesame oil 2:1 (20 mm, 70 μm) + TAF base:castor oil 2:1 (30 mm, 70 μm)) was 86.4 ± 10.3 µg/day. The “Daily RR” value ([3]; segmented implant: LNG:sesame oil 2:1 (20 mm, 70 μm) + TAF base:sesame oil 2:1 (30 mm, 70 μm)) was 47.7 ± 6.7 µg/day.
